The record followed here is patent publication US20220125051A1, “PRE-HARVEST DESICCATION METHOD” (SYNGENTA CROP PROTECTION AG, priority 2019, published 2022).

Holding throughout (test): Post-emergence efficacy, Method A
Holding throughout (format): in vivo

For assay [1], the system named is Chenopodium album (CHEAL). As to conditions: Application rate 500 g/Ha, evaluated after 13 days, 100=total damage to plant, 0=no damage to plant; for pest or weed control at 500 g/ha: Chenopodium album, post-emergence, 312 h, read-out: Control of weed species after post-emergence application, CHEAL. The gist of the method:
(§1)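 Plants grown 14 days in glasshouse (24/16 °C, 14 h light, 65% humidity) were sprayed with compound formulated in IF50. The spray was diluted in 0.25% or 1% Empicol ESC70 plus 1% ammonium sulphate. Damage was scored 13 days later on a 0-100 scale, where 100 is total damage.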

The test system of the next assay is Eleusine indica (ELEIN). As to conditions: Application rate 500 g/Ha, evaluated after 13 days, 100=total damage to plant, 0=no damage to plant; for pest or weed control at 500 g/ha: Eleusine indica, post-emergence, 312 h, read-out: Control of weed species after post-emergence application, ELEIN. Put shortly:
as §1

In assay [2] the test system is Ipomoea hederacea (IPOHE). As to conditions: Application rate 500 g/Ha, evaluated after 13 days, 100=total damage to plant, 0=no damage to plant; for pest or weed control at 500 g/ha: Ipomoea hederacea, post-emergence, 312 h, read-out: Control of weed species after post-emergence application, IPOHE. Put shortly: as §1
The subject of assay [3] is Digitaria sanguinalis (DIGSA). Conditions: Application rate 500 g/Ha, evaluated after 13 days, 100=total damage to plant, 0=no damage to plant; for pest or weed control at 500 g/ha: Digitaria sanguinalis, post-emergence, 312 h, read-out: Control of weed species after post-emergence application, DIGSA. The gist of the method:
as §1

The subject of assay [4] is Euphorbia heterophylla (EPHHL). As to conditions: Application rate 500 g/Ha, evaluated after 13 days, 100=total damage to plant, 0=no damage to plant; for pest or weed control at 500 g/ha: Euphorbia heterophylla, post-emergence, 312 h, read-out: Control of weed species after post-emergence application, EPHHL. The gist of the method: as §1
A further assay deals with Setaria faberi (SETFA). As to conditions: Application rate 500 g/Ha, evaluated after 13 days, 100=total damage to plant, 0=no damage to plant; for pest or weed control at 500 g/ha: Setaria faberi, post-emergence, 312 h, read-out: Control of weed species after post-emergence application, SETFA. The gist of the method:
as §1

Assay [5] relates to Echinochloa crus-galli (ECHCG). As to conditions: Application rate 500 g/Ha, evaluated after 13 days, 100=total damage to plant, 0=no damage to plant; for pest or weed control at 500 g/ha: Echinochloa crus-galli, post-emergence, 312 h, read-out: Control of weed species after post-emergence application, ECHCG. Put shortly:
as §1

For assay [6], the system named is Amaranthus palmeri (AMAPA). Conditions: Application rate 500 g/Ha, evaluated after 13 days, 100=total damage to plant, 0=no damage to plant; for pest or weed control at 500 g/ha: Amaranthus palmeri, post-emergence, 312 h, read-out: Control of weed species after post-emergence application, AMAPA. Put shortly: as §1
In the next assay the test system is Lolium perenne (LOLPE). As to conditions: Application rate 500 g/Ha, evaluated after 13 days, 100=total damage to plant, 0=no damage to plant; for pest or weed control at 500 g/ha: Lolium perenne, post-emergence, 312 h, read-out: Control of weed species after post-emergence application, LOLPE. Put shortly: as §1

With `O=C(O)CC[n+]1ccc(-c2cncc(C(F)(F)F)n2)cn1` [Compound A120], the pest or weed control at 500 g/ha in assay [1] was 70%; with Eleusine indica (ELEIN), 30%; in assay [2], 10%; in assay [3], 40%; in assay [4], 50%; with Setaria faberi (SETFA), 40%. In addition, the pest or weed control at 500 g/ha in assay [5] amounted to 40%; in assay [6], 90%; with Lolium perenne (LOLPE) it was 20%.

Turning to `O=C(O)CC[n+]1ccc(-c2cnc(C(F)(F)F)cn2)cn1` [Compound A121], the pest or weed control at 500 g/ha is 80% in [1]; 20% with Eleusine indica (ELEIN); 20% in assay [2]; 40% in assay [3]; 80% in assay [4]; 30% with Setaria faberi (SETFA). Also, the figures for the pest or weed control at 500 g/ha (in assay [5]; in assay [6]; with Lolium perenne (LOLPE)) were 40%, 100% and 30%, respectively.

For `O=S(=O)([O-])CC[n+]1ccc(-c2ccc(C(F)(F)F)nn2)cn1` [Compound A122], the pest or weed control at 500 g/ha in assay [1] amounted to 100%; in the assay on Eleusine indica (ELEIN) it was 90%; in assay [2] it was 70%; in [3], 40%; in [4] it was 100%; in the assay with Setaria faberi (SETFA), 60%. The pest or weed control at 500 g/ha was found to be 40% in assay [5], 100% in assay [6] and 70% with Lolium perenne (LOLPE).

`CCOP(=O)(CC[n+]1ccc(-c2ncccn2)cn1)OCC` [Compound A124, 1-(2-diethoxyphosphorylethyl)-4-pyrimidin-2-yl-pyridazin-1-ium]: the pest or weed control at 500 g/ha in [1] was 0%; with Eleusine indica (ELEIN), 0%; in [2] it was 0%; in assay [3], 10%; in assay [4], 0%; with Setaria faberi (SETFA), 20%. Further, the pest or weed control at 500 g/ha (in [5]; in assay [6]; in the assay with Lolium perenne (LOLPE)) was 0% throughout.

Turning to `O=C(O)CC[n+]1ccc(-c2ccc(C(F)(F)F)nn2)cn1` [Compound A126], the pest or weed control at 500 g/ha was 80% in assay [1]; 90% with Eleusine indica (ELEIN); 30% in assay [2]; 80% in assay [3]; 100% in [4]; 100% in the assay with Setaria faberi (SETFA). Further, the pest or weed control at 500 g/ha in assay [5] came out at 80%; in assay [6], 100%; in the assay on Lolium perenne (LOLPE) it was 70%.

For the molecule `O=C(O)CC[n+]1ccc(-c2nccc(=O)[nH]2)cn1` [Compound A127], the pest or weed control at 500 g/ha in assay [1] was determined as 20%; in the assay on Eleusine indica (ELEIN) it was 20%; in [2], 10%; in assay [3] it was 80%; in assay [4], 20%; with Setaria faberi (SETFA) it was 30%. Moreover, the pest or weed control at 500 g/ha turned out to be 40% in [5], 10% in assay [6] and 10% with Lolium perenne (LOLPE).

For the molecule `O=C(O)CC[n+]1ccc(-c2ncccc2C(F)(F)F)cn1` [Compound A128], the pest or weed control at 500 g/ha in [1] amounted to 10%; in the assay with Eleusine indica (ELEIN), 50%; in [2], 0%; in assay [3] it was 30%; in [4], 0%; in the assay on Setaria faberi (SETFA) it was 30%. Besides, the pest or weed control at 500 g/ha was 30% in assay [5], 30% in assay [6] and 40% with Lolium perenne (LOLPE).

As for `O=C(O)CC[n+]1ccc(-c2ncc(C(F)(F)F)cn2)cn1` [Compound A129], the pest or weed control at 500 g/ha in assay [1] came out at 50%; in the assay on Eleusine indica (ELEIN) it was 40%; in assay [2] it was 10%; in assay [3], 60%; in assay [4], 70%; in the assay on Setaria faberi (SETFA), 60%. The pest or weed control at 500 g/ha in assay [5] turned out to be 90%; in assay [6], 70%; with Lolium perenne (LOLPE), 80%.

For the molecule `Cc1n[n+](CCC(=O)O)ccc1-c1ncccn1.O=C([O-])C(F)(F)F` [Compound A132], the pest or weed control at 500 g/ha in assay [1] is 30%; in the assay on Eleusine indica (ELEIN), 90%; in assay [2], 10%; in [3], 90%; in [4], 30%; with Setaria faberi (SETFA), 100%. For the same molecule, the pest or weed control at 500 g/ha in [5] is 70%; with Lolium perenne (LOLPE), 50%. The “Control of weed species after post-emergence application, AMAPA” value in assay [6] is 90.

Take `Cc1n[n+](CCC(=O)O)ccc1-c1ncccn1.[Cl-]` [Compound A133]: in assay [1], the “Control of weed species after post-emergence application, CHEAL” value was 40. The “Control of weed species after post-emergence application, ELEIN” value in the assay with Eleusine indica (ELEIN) came out at 90. In addition, the “Control of weed species after post-emergence application, IPOHE” value in assay [2] worked out at 20. In assay [3], the “Control of weed species after post-emergence application, DIGSA” value was 70. Further, in assay [4], the “Control of weed species after post-emergence application, EPHHL” value was found to be 20. Besides, the “Control of weed species after post-emergence application, SETFA” value with Setaria faberi (SETFA) was 90. In addition, the “Control of weed species after post-emergence application, ECHCG” value in [5] came out at 70. Besides, in [6], the “Control of weed species after post-emergence application, AMAPA” value is reported as 60. Moreover, the “Control of weed species after post-emergence application, LOLPE” value in the assay on Lolium perenne (LOLPE) amounted to 40.

`Cc1cnc(-c2cc[n+](CCS(=O)(=O)[O-])nc2)c(F)c1` [Compound A135]: the pest or weed control at 500 g/ha in [1] was 20%; with Eleusine indica (ELEIN), 70%; in assay [2] it was 30%; in assay [3] it was 30%; in assay [4], 50%; in the assay with Setaria faberi (SETFA), 50%. Besides, the pest or weed control at 500 g/ha in assay [5] turned out to be 50%; in assay [6] it was 60%; with Lolium perenne (LOLPE), 60%.

As to `Cc1cnc(-c2cc[n+](CCS(=O)(=O)[O-])nc2)c(Cl)c1` [Compound A136], the pest or weed control at 500 g/ha in assay [1] was determined as 30%; with Eleusine indica (ELEIN) it was 50%; in assay [2], 30%; in assay [3], 60%; in assay [4], 30%; with Setaria faberi (SETFA), 70%. The values for the pest or weed control at 500 g/ha (in assay [5]; in [6]; in the assay on Lolium perenne (LOLPE)) were 40%, 60% and 20%, respectively.

For the molecule `Cc1cnc(-c2cc[n+](CCC(=O)O)nc2)c(Cl)c1` [Compound A137], the pest or weed control at 500 g/ha was determined as 20% in [1]; 40% with Eleusine indica (ELEIN); 10% in [2]; 40% in [3]; 20% in [4]; 40% in the assay with Setaria faberi (SETFA). The pest or weed control at 500 g/ha in [5] stood at 30%; in [6] it was 60%; in the assay with Lolium perenne (LOLPE) it was 20%.

With `COC(=O)CC[n+]1ccc(-c2cccnn2)cn1` [Compound A139], the pest or weed control at 500 g/ha in [1] came out at 100%; in the assay on Eleusine indica (ELEIN), 100%; in assay [2] it was 10%; in assay [3], 100%; in [4] it was 90%; in the assay on Setaria faberi (SETFA), 100%. For the same molecule, the pest or weed control at 500 g/ha in assay [5] came to 100%; in [6] it was 80%; with Lolium perenne (LOLPE), 90%.
